Source: patent US20090099191A1, “INHIBITION OF NF-KB” (priority 2006, published 2009)

Assays:
DNA [1] = test: DNA damaging activity
tumor and normal cells = test: Toxicity to tumor versus normal cells; type: cell-based; conditions: in vitro and in vivo
Protocol: 5×10^3 of cells were plated in 6 well plates and treated with different concentrations of drugs for 24 hours. Then fresh drug-free medium was added. Number of colonies was estimated after 5-6 days of incubation. Cell survival was estimated as a percentage of intensity of methylene blue staining of treated cells, comparing with untreated control (methylene blue from stained colonies was extracted by 0.1% of SDS and quantitated spectrophotometrically).

[2] = test system: variety of tumor cell types; test: p53 activation and p53-dependent killing of tumor cell types; type: cell-based; conditions: besides RCC
NF-κB = NF-κB activity in tumor cells; type: cell-based
[3] = test system: p53 transactivation in RCC45ConALacZ cells; test: RCC cell-based p53-responsive reporter (ConALacZ) screening
Description: Reporter cell lines with p53 responsive β-galactosidase were described in Gurova, et al. (2004). Cancer Res 64, 1951-1958. Reporter cell lines with p53 responsive luciferase was generated by transfection of p21-ConALuc plasmid with following selection on G418. Reporter cell lines with NF-κB-dependent luciferase were obtained by cotransfection of pNF-κBLuc and pEGFP-mito (Clontech) plasmids followed by selection on G418 (marker provided by pEGFP-mito plasmid). Reporter cell lines with myc, or Clock/Bmal responsive reporters were kindly provided by C. Burkhart and M. Antoch (Cleveland Clinic Foundation, OH).
2×10^4 of RCC45ConALacZ cells were plated into wells of 96 well plates in 200 μL of phenol-red free RPMI medium with standard additives. […] After 3 hours of incubation at 37° C., β-galactosidase activity was estimated by reading absorbance values Wallack 1420 plate reader (Perkin Elmer) at λ=430 nm.
For cotransfection set-up, 2×10^5 cells were plated into 6 well plates and, after overnight incubation, transfected with Lipofectamin Plus reagent (Gibco BRL) with 0.5 μg of reporter plasmids (p21-ConALuc or pNF-κBLuc) in combination with different concentrations of p53, Arf, Ss-IκB, or siHDM2 expressing plasmids. […] Luminometric and colorimetric reactions were read on the Wallack 1420 plate reader (Perkin Elmer). […]

DNA [4] = conditions: intercalation; cited from earlier work

DNA damaging activity (DNA [1])	Structure (SMILES)	toxicity to tumor versus normal cells (tumor and normal cells)	p53-dependent killing [2]	p53 activation [2]	effect on stimulated and basal constitutive NF-κB activity (NF-κB)	p53 reactivation relative to doxorubicin ([3]; RCC45 cells, library of 59 derivatives of compound 30d9, fold of p53 activation over the effect of 2 μM of doxorubicin (FIG. 3B))	identified as p53 activator / hit in reporter screen ([3]; RCC45ConALacZ cell-based reporter assay)	DNA binding affinity (DNA [4])
did not show DNA damaging activity	Nc1c2ccccc2nc2ccccc12 [Compound 9AA, 9-aminoacridine]	more toxic to tumor than to normal cells	p53-dependent killing	capable of p53 activation	block stimulated NF-κB activity and also effectively reduce basal levels of constitutive NF-κB activity			
did not show DNA damaging activity	CCN(CC)CCCC(C)Nc1c2ccc(Cl)cc2nc2ccc(OC)cc12 (stereo not drawn) [Quinacrine]	more toxic to tumor than to normal cells	p53-dependent killing	capable of p53 activation		intermediate level of activity		
	Cc1c2ccncc2c(C)c2c1[nH]c1ccccc12 [ellipticine]						identified	10^6 M^−1
